Consider six compounds from US5183805A (Board of Regents, The University of Texas System, priority 1990, dated 1993).

For experiment [1], the system named is ornithine decarboxylase (ODC) induction by EGF. As to the kind of experiment: Effect of peptide pretreatment on EGF-stimulated ODC induction in ME-180 cells. The following applies: 100-fold excess, 100 ng/ml peptide 30 min, then 10 ng/ml EGF 3 hours. The format is cell-based. The protocol: FIG. 4--Effect of synthetic peptide pretreatment on EGF-stimulated ODC induction in ME-180 cells. […] Cells are pelleted, sonicated in a buffer containing 25 mM NaPO4, 1mM DTT, 40 μM PLP, 0.1 mM EDTA, and centrifuged for 30 min. at 15,000 rpm at 4° C. Ornithine decarboxylase activity was determined on the supernatant by monitoring ^14 CO2 released from 0.5 μCi of I (^14 C) ornithine in a total ornithine concentration of 0.5 mM and a total volume of 0.2ml. P1--linear peptide and P2--cyclic peptide with phe at position 6; P3--linear peptide and P4--cyclic peptide with tyr at position 6.

Experiment [2] concerns the target T1, EGF receptor (Homo sapiens, UniProt P00533). The experiment is described as follows: Summary statements on biological activity (receptor studies, parameters examined) compared with other EGF peptide analogs. From the text: Relative biological activity of a peptide also may reflect the activity of the peptide in immune complex kinase assays, the ability to inhibit ornithine decarboxylase activity, mitogenic stimulation activity, ability to induce EGF-r phosphorylation in vivo and action in the phosphorylation of calpactin.

Experiment [3] concerns the target T1, EGF receptor. The experiment is described as follows: Inhibition of 125I-EGF binding to A431 cells (EGF receptor competition assay). Details: endogenous in cells; host or cells: A431 epidermoid carcinoma cells (ATCC CRL 1555). The method, then:
FIG. 3--Inhibition of ^125 I-EGF binding by synthetic peptides. 1×10^5 A431 cells were plated in each well of a 24 well tissue culture plate, and allowed to grow for 48 o hours. Cells were rinsed 3 times in cold serum-free DMEM containing 0.1% BSA and 50 mM HEPES, pH 7.4, then incubated in this medium for 45 min. at 4° C. Subsequently, varying concentrations of peptide (or unlabeled EFG) was added, followed by 20,000 cpm ^125 I-EGF. After 2 hours incubation, medium is removed and cells are washed two times in PBS, then solubilized in 1 ml IN NaOH at 24° C. for 18 hours. Radioactivity in the solution is determined in a gamma counter. Peptide A--cyclic peptide with tyr at position 6; Peptide B--linear peptide with tyr at position 6; Peptide C --cyclic peptide with phe at position 6.
For this assay, cells were grown overnight in serum free media in microtiter wells, washed several times in PBS, then incubated for 2h with various concentrations of peptides. ^125 I-EGF was then added for 3o min, cells were extensively washed, and radioactivity was estimated in a gamma counter.

For experiment [4], the system named is A431 cells. The experiment is described as follows: Mitogenic stimulation / growth of A431 cells. The format is cell-based. Particulars: for effect on A431 cell growth: serum-free medium, counted after 72 hours. The protocol:
FlG. […] Mitogenic Stimulation of A431 cells. […] The peptide analog 38A is the cyclic form of the peptide with native tyrosine. Cells were harvested 72 hours later and counted with the aid of a hemacytometer.
A431 cells are a malignant cell line in which the study of EGF-r has been well characterized. […] Over the range of peptide analog concentrations tested, no inhibition of A431 cell growth was observed.

The target in experiment [5] is T2, EGF-R (Homo sapiens, UniProt P00533).
T2 construct: endogenous in cells; host or cells: A431 epidermoid carcinoma cells (ATCC CRL 1555)
T2 sequence (P00533 25-1210): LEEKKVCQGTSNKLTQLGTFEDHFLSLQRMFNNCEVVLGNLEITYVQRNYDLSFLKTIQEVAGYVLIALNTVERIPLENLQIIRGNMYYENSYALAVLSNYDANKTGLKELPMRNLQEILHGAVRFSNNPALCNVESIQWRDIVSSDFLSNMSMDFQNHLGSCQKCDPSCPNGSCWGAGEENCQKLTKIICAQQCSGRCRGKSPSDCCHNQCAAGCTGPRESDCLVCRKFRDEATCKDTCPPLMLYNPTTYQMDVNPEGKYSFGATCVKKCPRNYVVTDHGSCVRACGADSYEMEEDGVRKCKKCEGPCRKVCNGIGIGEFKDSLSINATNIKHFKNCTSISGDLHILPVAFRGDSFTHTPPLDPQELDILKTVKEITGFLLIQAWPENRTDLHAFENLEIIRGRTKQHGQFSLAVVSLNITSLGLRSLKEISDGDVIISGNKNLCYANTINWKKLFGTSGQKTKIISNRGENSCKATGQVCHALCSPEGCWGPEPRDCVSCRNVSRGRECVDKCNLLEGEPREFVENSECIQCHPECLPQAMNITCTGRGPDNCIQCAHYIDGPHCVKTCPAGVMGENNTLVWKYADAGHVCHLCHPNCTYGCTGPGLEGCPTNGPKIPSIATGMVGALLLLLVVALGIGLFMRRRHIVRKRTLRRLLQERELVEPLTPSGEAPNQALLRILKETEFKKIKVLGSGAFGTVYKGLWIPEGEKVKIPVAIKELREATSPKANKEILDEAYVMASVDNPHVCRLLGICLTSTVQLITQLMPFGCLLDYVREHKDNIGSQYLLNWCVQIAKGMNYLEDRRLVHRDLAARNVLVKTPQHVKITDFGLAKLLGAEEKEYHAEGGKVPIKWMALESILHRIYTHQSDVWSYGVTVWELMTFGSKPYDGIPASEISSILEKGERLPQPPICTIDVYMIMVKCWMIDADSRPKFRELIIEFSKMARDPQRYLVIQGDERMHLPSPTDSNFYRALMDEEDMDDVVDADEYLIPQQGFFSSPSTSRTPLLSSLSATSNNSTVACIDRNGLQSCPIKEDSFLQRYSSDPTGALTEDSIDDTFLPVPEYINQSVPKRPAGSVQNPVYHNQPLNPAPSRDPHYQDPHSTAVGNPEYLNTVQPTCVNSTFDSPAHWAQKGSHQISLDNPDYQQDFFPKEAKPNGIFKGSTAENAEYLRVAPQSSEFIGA
As to the kind of experiment: Kinetics of EGF-R kinase stimulation: peptide added to A431 cells, then immune complex kinase assay. The format is cell-based. The following applies: 20 ng/ml peptide, 37° C, very preliminary. The method, then: FIG. 1 - Kinetics of EGF-R stimulation by synthetic peptides. To semi-confluent A431 cells (grown in 0.1% FCS), indicated concentrations of cyclic (peptide A) or linear (peptide D) peptide with tyr at position 6 was added at a concentration of 20 ng/ml for 10 min at 37° C. Cells were harvested, lysed, EFG-R was immunoprecipitated, immune complex kinase assays were performed, and proteins resolved as described in FIG. 1. […] This figure compares preliminary kinetics of kinase stimulation after the addition of the active cyclic and less-active linear peptide to A431 cells. Immune complex kinase of EGF-r after addition of various biological response modifiers to A431 cells is shown.

In experiment [6] the target is T1, EGF receptor. As to the kind of experiment: Immune complex kinase assay of EGF-R immunoprecipitated from A431 cells, peptides added to the complexes, autophosphorylation measured. It counts as biochemical. Details: endogenous in cells; host or cells: A431 epidermoid carcinoma cells (ATCC CRL 1555). The method, then:
A431 cells at approximately 70-80% confluency were lysed in a detergent-containing (RIPA) buffer, and clarified by centrifuging at 10,000×g for 10 min. […] Immune complexes were harvested after 15 min. incubation with 50 μl Pansorbin. For kinase assays, complexes were washed in RIPA buffer, then resuspended in 50 μl 1 0.1% Triton X-100 in 20 mM HEPES, pH 7.0, with the addition of 100 μm sodium vanadate. After 10 min. incubation, kinase reaction was initiated by addition of 50 μl of 20 mM HEPES containing 10 μCi γ^-32p ATP. Reaction was allowed to proceed at 25° C. for 10 min., and terminated by addition of RIPA buffer.
This assay is very sensitive, and kinase activation is among the earliest events in mitogenesis.
Immune complexes were harvested with formalin fixed staphylococcus aureus Cowan Strain (Calbiochem). These complexes were then assayed for kinase activity in an immune complex kinase assay.
Selected peptides from Example 3 were employed in the study.

The conditions of experiment [7]: Heath and Merrifield (1986); cited from earlier work.

Where two headings read alike, the source gives them in different places. Positions of bridges follow the written chain, without caps; N, C: chain ends. Residues, ends and D or L forms follow the SMILES beside them. No end group written: not given here.

T1 sequence (P00533 25-1210): as above

As for `CC[C@H](C)[C@@H]1NC(=O)[C@H](Cc2ccc(O)cc2)NC(=O)CNC(=O)[C@H](C(C)C)NC(=O)[C@H](C(C)C)NC(=O)[C@@H](NC(=O)[C@H](CC(N)=O)NC(C)=O)CSSC[C@@H](C(=O)N[C@@H](CCC(N)=O)C(=O)N[C@@H](Cc2ccc(O)cc2)C(=O)N[C@@H](CCCNC(=N)N)C(=O)N[C@@H](CC(=O)O)C(=O)N[C@@H](CC(C)C)C(=O)N[C@@H](CCCCN)C(N)=O)NC(=O)[C@H](CCCNC(=N)N)NC(=O)[C@H](CCC(=O)O)NC(=O)CNC1=O` [Peptide A] (Ac-NCVVGYIGERCQYRDLK-NH2; disulfide 2-11), in experiment [1], the “inhibition of ODC induction of EGF” value turned out to be 50%. The “biological activity relative to any other EGF peptide analog so far synthesized” value in experiment [2] (listed as cyclic form of this unsubstituted peptide) is 100 fold; in experiment [2] (listed as cyclic peptide comprising the end of the B loop and the C loop), 100 fold; in experiment [2] (listed as natural tyrosine form of the cyclic peptide analog), above 100 fold. The “competition for EGF receptor binding relative to any previously reported peptide” value in experiment [3] is 100 fold. In addition, in experiment [3], the “concentration for 50% inhibition of 125I-EGF binding relative to that for unlabeled EGF” value worked out at 10 fold. Also, the “effect on A431 cell growth” value in experiment [4] (0.1 ng/ml, listed as 38A) is “stimulated cell growth”; in experiment [4] (0.1 ng/ml, listed as most biologically active cyclic peptide analog), “stimulated these cells”; in experiment [4] (10 ng/ml, listed as 38A), “stimulated cell growth”; in experiment [4] (10 ng/ml, listed as most biologically active cyclic peptide analog), “stimulated these cells”. Moreover, the “effect of higher concentrations of EGF on A431 growth in the presence of peptide” value in experiment [4] (10 ng/ml peptide analog mixed with higher concentrations of EGF) was “no longer growth-inhibited”. Also, the “effect on A431 cell growth of peptide mixed with EGF” value in experiment [4] (peptide and EGF mixed, low concentrations) is given as “stimulation of cell growth”. Further, the “inhibition of A431 cell growth over the range of concentrations tested” value in experiment [4] (whole concentration range tested) is “no inhibition”. In addition, the “time of maximum stimulation of kinase activity” value in experiment [5] is on record as 15 min.

Regarding `CC[C@H](C)[C@H](NC(=O)[C@H](Cc1ccc(O)cc1)NC(=O)CNC(=O)[C@@H](NC(=O)[C@@H](NC(=O)[C@H](CS)NC(=O)[C@H](CC(N)=O)NC(C)=O)C(C)C)C(C)C)C(=O)NCC(=O)N[C@@H](CCC(=O)O)C(=O)N[C@@H](CCCNC(=N)N)C(=O)N[C@@H](CS)C(=O)N[C@@H](CCC(N)=O)C(=O)N[C@@H](Cc1ccc(O)cc1)C(=O)N[C@@H](CCCNC(=N)N)C(=O)N[C@@H](CC(=O)O)C(=O)N[C@@H](CC(C)C)C(=O)N[C@@H](CCCCN)C(N)=O` [Peptide B] (Ac-NCVVGYIGERCQYRDLK-NH2), the “biological activity relative to any other EGF peptide analog so far synthesized” value in experiment [2] came to 10 fold. In addition, the “competition for 125I-EGF binding (in words)” value in experiment [3] is on record as “marginal competition”.

Take `CC[C@H](C)[C@@H]1NC(=O)[C@H](Cc2ccccc2)NC(=O)CNC(=O)[C@H](C(C)C)NC(=O)[C@H](C(C)C)NC(=O)[C@@H](NC(=O)[C@H](CC(N)=O)NC(C)=O)CSSC[C@@H](C(=O)N[C@@H](CCC(N)=O)C(=O)N[C@@H](Cc2ccc(O)cc2)C(=O)N[C@@H](CCCNC(=N)N)C(=O)N[C@@H](CC(=O)O)C(=O)N[C@@H](CC(C)C)C(=O)N[C@@H](CCCCN)C(N)=O)NC(=O)[C@H](CCCNC(=N)N)NC(=O)[C@H](CCC(=O)O)NC(=O)CNC1=O` [Peptide C] (Ac-NCVVGFIGERCQYRDLK-NH2; disulfide 2-11): the “stimulation of kinase activity” value in experiment [6] (30 ng/ml peptide) is “approximately 2 fold”. For the same compound, the “competition for 125I-EGF binding (in words)” value in experiment [3] is “marginal competition”.

With `CC[C@H](C)[C@H](NC(=O)[C@H](Cc1ccccc1)NC(=O)CNC(=O)[C@@H](NC(=O)[C@@H](NC(=O)[C@H](CS)NC(=O)[C@H](CC(N)=O)NC(C)=O)C(C)C)C(C)C)C(=O)NCC(=O)N[C@@H](CCC(=O)O)C(=O)N[C@@H](CCCNC(=N)N)C(=O)N[C@@H](CS)C(=O)N[C@@H](CCC(N)=O)C(=O)N[C@@H](Cc1ccc(O)cc1)C(=O)N[C@@H](CCCNC(=N)N)C(=O)N[C@@H](CC(=O)O)C(=O)N[C@@H](CC(C)C)C(=O)N[C@@H](CCCCN)C(N)=O` [Peptide P1] (Ac-NCVVGFIGERCQYRDLK-NH2), the “stimulation of EGF-receptor kinase activity (in words)” value in experiment [6] is on record as “no activity”.

Regarding “epidermal growth factor (NSDSECPLSHDGYCLHDGVCMYIEALDKYACNCVVGYIGERCQYRDLKWWELR; Epidermal growth factor; UniProt P01133 971-1023, looked up) [EGF, single-chain polypeptide, 53 amino acid residues, three internal disulfide bonds]”, the “effect on A431 cell growth” value in experiment [4] (0.1 ng/ml) is listed as “stimulated A431 cell growth”; in experiment [4] (0.1 ng/ml, listed as Native EGF) it was “stimulated growth”; in experiment [4] (10 ng/ml), “inhibited”; in experiment [4] (10 ng/ml, listed as Native EGF), “inhibited cell growth”.

Turning to “isolated "B" loop: synthetic peptide of the isolated B loop of EGF (residues 20-31), Heath and Merrifield (CMYIEALDKYAC; ends and bridges not checked; cysteine pairing not given here; UniProt P01133 990-1001, looked up, fragment)”, the “activity relative to EGF” value in experiment [7] is recorded as 0.001%.
